In paper PMC10026756:
Where two headings read alike, the source gives them in different places.

Columns and labels:
[1] = system: HCT-116 colon cancer cell line; assay: MTT assay, in vitro cytotoxicity against HCT-116; assay type: cell-based; conditions: read-out: IC50, in vitro cytotoxicity against HCT116 cell line
Method: The target compounds were evaluated for their anticancer activity against HCT-116 colon cancer cell line in which both c-Met and VEGFR-2 are overexpressed.[54]^,[55] […] The half maximal inhibitory concentration (IC50) was calculated for each compound (Table 1).
(§1) To scrutinise the cytotoxicity of the target compounds on colorectal cancer and normal cells, MTT assay was carried out against HCT-116 and WI38 cell lines, respectively.

c-Met = c-Met (Homo sapiens, UniProt P08581); assay: In vitro c-Met tyrosine kinase inhibition assay
VEGFR-2 = VEGFR-2 (Homo sapiens, UniProt P35968); assay: In vitro VEGFR-2 tyrosine kinase inhibition assay (BPS KDR Assay Kit)
HCT-116 cells = assay: Apoptosis assay, Annexin V-FITC/PI staining; assay type: cell-based; conditions: HCT-116, treated at IC50 concentration, 24 h
Method: Compared to the control group, the number of both early and late apoptotic cells of target compounds 4b and 4e was increased.
(§2) The effects of both 4b and 4e on progress of cell cycle and induction of apoptosis in […] cells were carried out using Annexin V-FITC Apoptosis Detection Kit (BioVision Research Products, Mountain View, CA) (see Supplementary Data)[8].

[2] = system: HCT-116 colon cancer cell line; assay: Cell cycle analysis; assay type: cell-based; conditions: HCT-116, treated at IC50 concentration, 24 h
Method: Aiming to further study the mechanism of the target compounds, the cell cycle arrest experiment of 4b and 4e blocking the cell cycle of HCT-116 was carried out using Annexin V-FITC/PI staining (Table 4 and Figure 8).[56]
as §2

[3] = MTT assay, in vitro toxicity against normal cells; assay type: cell-based; conditions: human, WI38 normal cells; MTT assay, WI38; read-out: IC50, in vitro cytotoxicity against WI38 normal cell line
Method: (§3) To scrutinise the safety of target compounds on normal cells, compounds 4b and 4e were selected to evaluate their cytotoxic activity against WI38 normal cell line (Table 2).
as §1

WI38 normal cell line = assay: MTT assay, in vitro toxicity against normal cells; assay type: cell-based; conditions: HCT-116 versus WI38
Method: as §3, §1

[4] = Homo sapiens, HCT-116, MTT assay

Chain of VEGFR-2 (P35968 20-1356): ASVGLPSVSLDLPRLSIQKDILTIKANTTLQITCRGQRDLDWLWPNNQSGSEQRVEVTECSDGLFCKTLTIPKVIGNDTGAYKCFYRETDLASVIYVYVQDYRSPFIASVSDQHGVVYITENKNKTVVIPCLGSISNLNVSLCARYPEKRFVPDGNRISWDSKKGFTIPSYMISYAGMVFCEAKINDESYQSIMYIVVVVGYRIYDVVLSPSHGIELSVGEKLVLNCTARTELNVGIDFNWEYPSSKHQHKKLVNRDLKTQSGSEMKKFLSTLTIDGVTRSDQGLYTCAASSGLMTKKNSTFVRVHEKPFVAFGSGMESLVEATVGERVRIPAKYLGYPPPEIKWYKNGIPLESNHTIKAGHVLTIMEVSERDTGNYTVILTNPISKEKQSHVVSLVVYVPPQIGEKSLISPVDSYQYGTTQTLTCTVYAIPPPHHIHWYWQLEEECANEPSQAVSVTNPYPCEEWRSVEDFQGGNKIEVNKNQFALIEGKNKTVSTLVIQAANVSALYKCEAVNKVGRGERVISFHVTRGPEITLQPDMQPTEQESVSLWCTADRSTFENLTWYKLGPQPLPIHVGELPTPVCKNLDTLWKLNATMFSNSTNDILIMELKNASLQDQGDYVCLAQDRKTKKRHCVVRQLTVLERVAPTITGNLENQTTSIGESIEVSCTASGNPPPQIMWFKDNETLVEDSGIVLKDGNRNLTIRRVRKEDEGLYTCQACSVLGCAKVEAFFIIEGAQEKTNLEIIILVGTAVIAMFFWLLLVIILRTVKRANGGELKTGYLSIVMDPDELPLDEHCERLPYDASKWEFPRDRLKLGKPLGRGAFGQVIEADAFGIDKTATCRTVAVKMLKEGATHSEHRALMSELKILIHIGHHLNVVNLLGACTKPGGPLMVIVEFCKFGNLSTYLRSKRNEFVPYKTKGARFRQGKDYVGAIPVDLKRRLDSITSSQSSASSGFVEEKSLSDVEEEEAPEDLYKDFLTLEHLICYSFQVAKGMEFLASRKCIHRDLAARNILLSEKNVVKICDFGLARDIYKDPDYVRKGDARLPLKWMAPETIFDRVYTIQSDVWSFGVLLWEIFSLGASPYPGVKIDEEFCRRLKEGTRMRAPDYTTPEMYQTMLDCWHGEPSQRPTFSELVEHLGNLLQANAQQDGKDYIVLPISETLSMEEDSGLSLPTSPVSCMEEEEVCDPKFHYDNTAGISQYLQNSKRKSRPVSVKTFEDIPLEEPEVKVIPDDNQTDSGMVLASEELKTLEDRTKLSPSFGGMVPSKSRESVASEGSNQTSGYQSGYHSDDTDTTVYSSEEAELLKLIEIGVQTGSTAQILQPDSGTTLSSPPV
Chain of c-Met (P08581 25-1390): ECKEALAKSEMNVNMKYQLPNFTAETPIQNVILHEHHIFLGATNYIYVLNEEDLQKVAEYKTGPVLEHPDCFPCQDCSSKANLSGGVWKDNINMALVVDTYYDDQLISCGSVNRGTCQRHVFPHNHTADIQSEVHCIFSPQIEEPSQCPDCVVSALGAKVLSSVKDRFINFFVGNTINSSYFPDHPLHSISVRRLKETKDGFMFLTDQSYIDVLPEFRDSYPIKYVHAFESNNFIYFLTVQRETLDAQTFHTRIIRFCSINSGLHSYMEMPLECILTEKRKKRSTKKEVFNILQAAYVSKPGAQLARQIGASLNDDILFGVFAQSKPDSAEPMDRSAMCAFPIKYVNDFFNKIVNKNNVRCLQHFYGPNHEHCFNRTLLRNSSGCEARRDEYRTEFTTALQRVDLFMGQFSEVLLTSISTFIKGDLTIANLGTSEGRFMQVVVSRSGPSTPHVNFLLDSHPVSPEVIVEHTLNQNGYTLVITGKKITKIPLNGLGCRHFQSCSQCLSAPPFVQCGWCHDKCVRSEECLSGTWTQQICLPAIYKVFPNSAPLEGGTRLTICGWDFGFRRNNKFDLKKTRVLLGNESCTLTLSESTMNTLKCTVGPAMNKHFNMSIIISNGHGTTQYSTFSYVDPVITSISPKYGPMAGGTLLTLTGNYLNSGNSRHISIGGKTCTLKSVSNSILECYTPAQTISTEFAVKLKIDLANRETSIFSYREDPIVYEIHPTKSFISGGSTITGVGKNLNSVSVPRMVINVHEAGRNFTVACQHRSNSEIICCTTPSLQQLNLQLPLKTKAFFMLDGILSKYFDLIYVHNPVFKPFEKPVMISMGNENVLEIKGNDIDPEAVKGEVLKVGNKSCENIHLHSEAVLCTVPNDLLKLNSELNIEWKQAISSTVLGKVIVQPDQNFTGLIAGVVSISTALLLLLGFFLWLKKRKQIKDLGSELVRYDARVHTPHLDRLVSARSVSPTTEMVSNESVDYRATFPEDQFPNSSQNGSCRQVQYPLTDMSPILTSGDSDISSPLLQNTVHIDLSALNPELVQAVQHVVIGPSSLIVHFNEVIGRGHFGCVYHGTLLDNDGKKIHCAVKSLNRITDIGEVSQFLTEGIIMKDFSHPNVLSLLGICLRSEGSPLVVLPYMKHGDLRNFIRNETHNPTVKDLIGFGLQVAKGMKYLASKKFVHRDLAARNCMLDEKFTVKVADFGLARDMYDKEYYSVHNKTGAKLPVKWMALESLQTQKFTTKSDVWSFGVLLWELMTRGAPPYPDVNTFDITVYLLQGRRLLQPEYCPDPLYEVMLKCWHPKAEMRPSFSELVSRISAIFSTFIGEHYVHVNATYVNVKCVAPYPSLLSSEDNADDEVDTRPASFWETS

Structure (SMILES)	IC50 [1, 4]	melting point	IC50 (c-Met)	c-Met %inh (c-Met; conc 0.01 (unit not given))	c-Met %inh (c-Met; conc 0.1 (unit not given))	c-Met %inh (c-Met; conc 1 (unit not given))	c-Met %inh (c-Met; conc 10 (unit not given))	IC50 (VEGFR-2)	VEGFR-2 %inh (VEGFR-2; conc 0.01 (unit not given))	VEGFR-2 %inh (VEGFR-2; conc 0.1 (unit not given))	VEGFR-2 %inh (VEGFR-2; conc 1 (unit not given))	VEGFR-2 %inh (VEGFR-2; conc 10 (unit not given))	other results
O=C(Cn1c(=O)[nH]c2ccccc2c1=O)NCc1ccccc1 [Compound 2b, N-Benzyl-2-(2,4-dioxo-1,4-dihydroquinazolin-3(2H)-yl)acetamide]	16 ± 0.85 µM	298 to 299 °C											
NNC(=O)CNC(=O)Cn1c(=O)[nH]c2ccccc2c1=O [Compound 3, 2-(2,4-Dioxo-1,4-dihydroquinazolin-3(2H)-yl)-N-(2-hydrazineyl-2-oxo-ethyl)acetamide]	24.3 ± 1.28 µM	296 to 298 °C											
O=C(Cn1c(=O)[nH]c2ccccc2c1=O)NC1CCCCC1 [Compound 2c, N-Cyclohexyl-2-(2,4-dioxo-1,4-dihydroquinazolin-3(2H)-yl)acetamide]	4.69 ± 0.25 µM		0.084 ± 0.004 µM	27.36%	55.94%	73.28%	92.28%	0.052 ± 0.002 µM	35.32%	56.18%	76.46%	88.96%	
COc1cc2nccc(Oc3ccc(NC(=O)C4(C(=O)Nc5ccc(F)cc5)CC4)cc3)c2cc1OC [Cabozantinib, reference compound]	16.4 ± 0.86 µM												%Necrosis (HCT-116 cells): 3.63%; Apoptosis %Early (HCT-116 cells): 12.52%; Apoptosis %Late (HCT-116 cells): 19.61%; Apoptosis %Total (HCT-116 cells): 32.13%; %G0–G1 [2]: 43.12%; %G2/M [2]: 24.72%; %S [2]: 32.16%; IC50 [3]: 44.7 ± 2.65 µM
O=C(Cn1c(=O)[nH]c2ccccc2c1=O)N1CCOCC1 [Compound 2f, 3-(2-Morpholino-2-oxoethyl)quinazoline-2,4(1H,3H)-dione]	5.4 ± 0.29 µM	254 to 255 °C	0.161 ± 0.007 µM	22.84%	44.08%	70.59%	88.98%	0.21 ± 0.009 µM	18.54%	43.39%	68.26%	85.96%	
O=C(Cn1c(=O)[nH]c2ccccc2c1=O)NCC(=O)N/N=C/c1ccc([N+](=O)[O-])cc1 [Compound 4b, (E)-2-(2,4-Dioxo-1,4-dihydroquinazolin-3(2H)-yl)-N-[2-(2-[4-nitrobenz-ylidene]hydrazineyl)-2-oxoethyl]acetamide]	< 1 µM		0.063 ± 0.003 µM	27.49%	58.65%	82.51%	93.15%	0.035 ± 0.002 µM	38.24%	60.12%	78.48%	90.09%	IC50 ([1]; MTT assay): 0.734 ± 0.04 µM; %Necrosis (HCT-116 cells): 4.53%; Apoptosis %Early (HCT-116 cells): 15.28%; Apoptosis %Late (HCT-116 cells): 26.41%; Apoptosis %Total (HCT-116 cells): 41.69%; %G0–G1 [2]: 39.59%; %G2/M [2]: 9.34%; %S [2]: 51.07%; cytotoxic activity against HCT-116 colon cancer cells, times more than WI38 normal cells (WI38 normal cell line): 25 times; IC50 [3]: 18.4 ± 1.09 µM
CN(C)C(=O)Cn1c(=O)[nH]c2ccccc2c1=O [Compound 2d, 2-(2,4-Dioxo-1,4-dihydroquinazolin-3(2H)-yl)-N,N-dimethylacetamide]	47.5 ± 2.51 µM	218 to 220 °C											
O=C(Cn1c(=O)[nH]c2ccccc2c1=O)NCC(=O)N/N=C/c1ccccc1 [Compound 4a, (E)-N-[2-(2-Benzylidenehydrazineyl)-2-oxoethyl]-2-(2,4-dioxo-1,4-dihy-droquinazolin-3(2H)-yl)acetamide]	36.9 ± 1.95 µM	325 °C											
O=C(Cn1c(=O)[nH]c2ccccc2c1=O)NCC(=O)N/N=C1\C(=O)Nc2ccccc21 [Compound 4f, (Z)-2-[2,4-Dioxo-1,4-dihydroquinazolin-3(2H)-yl]-N-[2-oxo-2-(2-(2-oxoindolin-3-ylidene)hydrazineyl)ethyl]acetamide]	44.1 ± 2.33 µM												
O=C(Cn1c(=O)[nH]c2ccccc2c1=O)NCC(=O)NN=C1CCCCC1 [Compound 4e, N-[2-(2-Cyclohexylidenehydrazineyl)-2-oxoethyl]-2-(2,4-dioxo-1,4-dihydroquinazolin-3(2H)-yl)acetamide]	1.41 ± 0.07 µM		0.069 ± 0.003 µM	28.94%	55.05%	80.41%	92.94%	0.082 ± 0.004 µM	33.05%	50.29%	73.09%	86.83%	%Necrosis (HCT-116 cells): 2.28%; Apoptosis %Early (HCT-116 cells): 26.76%; Apoptosis %Late (HCT-116 cells): 12.02%; Apoptosis %Total (HCT-116 cells): 38.78%; %G0–G1 [2]: 44.60%; %G2/M [2]: 8.51%; %S [2]: 46.89%; cytotoxic activity against HCT-116 colon cancer cells, times more than WI38 normal cells (WI38 normal cell line): 7.5 times; IC50 [3]: 10.6 ± 0.62 µM
CCOC(=O)CNC(=O)Cn1c(=O)[nH]c2ccccc2c1=O [Compound 2g, Ethyl [2-(2,4-dioxo-1,4-dihydroquinazolin-3(2H)-yl)acetyl]glycinate]	12.5 ± 0.66 µM												
O=C(Cn1c(=O)[nH]c2ccccc2c1=O)NCc1n[nH]c(=S)n1-c1ccccc1 [Compound 4j, 2-(2,4-Dioxo-1,4-dihydroquinazolin-3(2H)-yl)-N-[(4-phenyl-5-thioxo-4,5-dihydro-1H-1,2,4-triazol-3-yl)methyl]acetamide]	18.9 ± 1 µM												
O=C(Cn1c(=O)[nH]c2ccccc2c1=O)Nc1ccccc1 [Compound 2a, 2-(2,4-Dioxo-1,4-dihydroquinazolin-3(2H)-yl)-N-phenylacetamide]	15.1 ± 0.8 µM												
O=C(Cn1c(=O)[nH]c2ccccc2c1=O)NCC(=O)N/N=C/c1ccco1 [Compound 4d, (E)-2-(2,4-Dioxo-1,4-dihydroquinazolin-3(2H)-yl)-N-[2-(2-[furan-2-ylmethylene]hydrazineyl)-2-oxoethyl]acetamide]	10.8 ± 0.57 µM												
O=C(Cn1c(=O)[nH]c2ccccc2c1=O)NCC(=O)NNC(=S)Nc1ccccc1 [Compound 4i, 2-(2,4-Dioxo-1,4-dihydroquinazolin-3(2H)-yl)-N-[2-oxo-2-(2-[phenylcar-bamothioyl]hydrazineyl)ethyl]acetamide]	9.2 ± 0.49 µM	287 to 290 °C											
COc1ccc(/C=N/NC(=O)CNC(=O)Cn2c(=O)[nH]c3ccccc3c2=O)cc1 [Compound 4c, (E)-2-(2,4-Dioxo-1,4-dihydroquinazolin-3(2H)-yl)-N-[2-(2-[4-methoxy-benzylidene]hydrazineyl)-2-oxoethyl]acetamide]	31.8 ± 1.68 µM	290 to 292 °C											
O=C(Cn1c(=O)[nH]c2ccccc2c1=O)N1CCCCC1 [Compound 2e, 3-(2-Oxo-2-(piperidin-1-yl)ethyl)quinazoline-2,4(1H,3H)-dione]	38 ± 2.01 µM	204 °C											
Cc1cc(C)n(C(=O)CNC(=O)Cn2c(=O)[nH]c3ccccc3c2=O)n1 [Compound 4g, N-[2-(3,5-Dimethyl-1H-pyrazol-1-yl)-2-oxoethyl]-2-(2,4-dioxo-1,4-dihyd-roquinazolin-3(2H)-yl)acetamide]	3.7 ± 0.2 µM	284 to 286 °C	0.271 ± 0.012 µM	20.56%	34.11%	65.69%	85.71%	0.103 ± 0.005 µM	27.96%	52.07%	70.58%	88.15%	
O=C(Cn1c(=O)[nH]c2ccccc2c1=O)NCc1n[nH]c(=S)o1 [Compound 4h, 2-(2,4-Dioxo-1,4-dihydroquinazolin-3(2H)-yl)-N-[(5-thioxo-4,5-dihydro-1,3,4-oxadiazol-2-yl)methyl]acetamide]	6.99 ± 0.37 µM		0.245 ± 0.011 µM	17.87%	35.84%	70.09%	86.83%	0.297 ± 0.013 µM	18.58%	40.45%	60.74%	82.49%	
